{
  "source": "patent US12121510B2",
  "about": "(Cedars-Sinai Medical Center, priority 2016, dated 2024)",
  "key": {"OV90 and OVCA 433": {"tested_on": "OV90 and OVCA 433", "assay": "Growth IC50 in ovarian cancer cell strains", "type": "cell-based, human", "details": "72 h; read-out: IC50 across ovarian cancer cell strains OV90 and OVCA 433", "protocol": "(§1) OV90 and OVCA433 are grown in vitro according to their standard culturing conditions, and an assay such as the crystal violet assay is performed."}, "[1]": {"tested_on": "Ramos, a B-cell lymphoma, cultured as 3-D spheroids", "assay": "Cell viability IC50 in 3-D spheroids", "type": "cell-based, human", "details": "Ramos 3-D spheroids; 72 h; single agent", "from_the_text": "(§2) Exemplary Embodiments are generally performed as follows, unless otherwise noted. Simvastatin is purchased from Ark Pharm, Inc. (Arlington Heights, IL). Cisplatin (CIS) is purchased from MedKoo Biosciences, Inc. (Chapel Hill, NC). Dihydroartemisinin is purchased from TCI America (Portland, OR). All other chemicals and reagents are purchased from standard sources such as Sigma-Aldrich and/or VWR and are of highest quality available. Puromycin dihydrochloride was purchased from Alfa Aesar (Tewksbury, MA). Deionized water ([…]) used for making solutions is obtained from Milli-Q Direct Ultrapure Water System from Millipore (Billerica, MA, USA). All intermediates are characterized by 1H NMR and mass analysis and the purity of compounds are analyzed by HPLC. 1H NMR data are collected on Bruker 400 MHz spectrometers using standard parameters; chemical shifts are reported in ppm (δ) in reference to residual non-deuterated solvent. ESI mass spectroscopy analysis is performed using a Thermo Fisher LTQ Orbitrap Elite system. IC50 is the half maximal inhibitory concentration and determined is determined by crystal violet assay unless otherwise noted.\nCancer cells were Ramos, a B-cell lymphoma, cultured as 3-D spheroids, cultured according to their standard culturing conditions."}, "Namalwa xenograft tumors": {"tested_on": "Namalwa xenograft tumors", "assay": "Burkitt lymphoma xenograft tumor growth", "type": "in vivo", "details": "Example 5; NCr Nu/Nu (10 μM) and NOD-SCID (5 μM) mice; 2 times a week; versus CIS or vehicle, p<0.05", "protocol": "Representative results are illustrated in FIG. 5. DZ-CIS is administered to tumors as follows. 15 mice each (NCr Nu/Nu, right panel of FIG. 5, and NOD-SCID, left panel) are injected with Human Burkitt lymphoma cell line, Namalwa cells (10^3), producing 4 xenograft tumors per mouse."}, "[2]": {"tested_on": "human lymphoma cell lines (Daudi, Raji, Namalwa, Ramos and CA-46)", "assay": "Growth IC50 in lymphoma cell line panel", "type": "cell-based", "details": "all lymphoma cell lines; 72 hours; read-out: IC50 across lymphoma cell lines", "protocol": "(§3) The crystal violet assay is performed as follows, unless otherwise noted. Cell lines are supplemented with RPMI 1640 medium, 10% fetal bovine serum, 1% PenStrep, and placed in a humidified atmosphere containing 5% CO2 at 37° C. 5,000 cells/well renal cancer cells and 10,000 cells/well lymphoma cells are seeded in 96 well plates in 100 microliter medium/per well for 24 h. […] Renal cancer cells are fixed with 3.7% paraformaldehyde for 15 minutes and are stained with Crystal violet solution (0.5% in 25% methanol) for 30 minutes. After rinsing with water cell layers are dried and decolorized with Sorenson citrate with shaking for 20 minutes. Light absorption of the extracted supernatant is read at 595 nm. Lymphoma cell growth was evaluated using MTT and cells are incubated for 4 hours. 100 microliters of isopropanol is added, and the extracted supernatant fraction is read at absorption maximum of 595 nm."}, "[3]": {"tested_on": "normal mouse kidney and liver", "assay": "Immunohistochemical staining of normal kidney and liver", "type": "in vivo", "details": "mice harbored with human Burkitt's lymphoma", "from_the_text": "These normal kidney and liver tissues were obtained from mice harbored with human Burkitt's lymphoma."}, "[4]": {"tested_on": "A549/DDP (Cisplatin Resistant)", "assay": "Cell proliferation IC50, Crystal Violet assay", "type": "cell-based, human", "details": "72 h"}, "A549": {"tested_on": "A549", "assay": "Cell proliferation IC50, Crystal Violet assay", "type": "cell-based, human", "details": "72 h"}, "o-786": {"tested_on": "o-786", "assay": "Renal cancer cell growth IC50 (crystal violet)", "type": "cell-based, human", "from_the_text": "as §2, §3\n(§4) Standard cell culture conditions typically are RPMI 1640 medium, 10% fetal bovine serum, 1% PenStrep, and are performed in a humidified atmosphere containing 5% CO2 at 37° C. Generally, 5,000 cells/well-10,000 cells/well are seeded in 96 well plates in 100 microliter medium/per well for 24 h, or as described in Example 16, unless otherwise noted. Certain cells require specialized media, growth factors, antibiotics, or culture condition adjustments, as will be apparent to a person of ordinary skill in the art.\nas §3, with “Cell” for “The crystal violet assay is performed as follows, unless otherwise noted. Cell”, “cultured as follows. […]” for “supplemented with RPMI 1640 medium, 10% fetal bovine serum, 1% PenStrep, and placed in a humidified atmosphere containing 5% CO2 at 37° C.”, “is” for “was”"}, "SKRC": {"tested_on": "SKRC", "assay": "Renal cancer cell growth IC50 (crystal violet)", "type": "cell-based, human", "from_the_text": "as §2, §3, §4\nas §3, with “Cell” for “The crystal violet assay is performed as follows, unless otherwise noted. Cell”, “cultured as follows. […]” for “supplemented with RPMI 1640 medium, 10% fetal bovine serum, 1% PenStrep, and placed in a humidified atmosphere containing 5% CO2 at 37° C.”, “is” for “was”"}, "ACHN": {"tested_on": "ACHN", "assay": "Renal cancer cell growth IC50 (crystal violet)", "type": "cell-based, human", "from_the_text": "as §2, §3, §4\nas §3, with “Cell” for “The crystal violet assay is performed as follows, unless otherwise noted. Cell”, “cultured as follows. […]” for “supplemented with RPMI 1640 medium, 10% fetal bovine serum, 1% PenStrep, and placed in a humidified atmosphere containing 5% CO2 at 37° C.”, “is” for “was”"}, "Caki-1": {"tested_on": "Caki-1", "assay": "Renal cancer cell growth IC50 (crystal violet)", "type": "cell-based, human", "details": "Caki-1", "from_the_text": "as §2, §3, §4\nas §3, with “Cell” for “The crystal violet assay is performed as follows, unless otherwise noted. Cell”, “cultured as follows. […]” for “supplemented with RPMI 1640 medium, 10% fetal bovine serum, 1% PenStrep, and placed in a humidified atmosphere containing 5% CO2 at 37° C.”, “is” for “was”"}, "OV90": {"tested_on": "OV90", "assay": "Ovarian cancer cell growth IC50 (crystal violet)", "type": "cell-based, human", "from_the_text": "as §2, §4, §1"}, "OVCA 433": {"tested_on": "OVCA 433", "assay": "Ovarian cancer cell growth IC50 (crystal violet)", "type": "cell-based, human", "from_the_text": "as §2, §4, §1"}, "ARCaP-E": {"tested_on": "ARCaP-E", "assay": "Cancer cell growth IC50 (crystal violet)", "type": "cell-based", "details": "Example 15", "from_the_text": "as §2, §3, §4"}, "HepG2": {"tested_on": "HepG2", "assay": "Cancer cell growth IC50 (crystal violet)", "type": "cell-based", "details": "Example 15", "from_the_text": "as §2, §3, §4"}, "U87": {"tested_on": "U87", "assay": "Cancer cell growth IC50 (crystal violet)", "type": "cell-based", "details": "Example 15", "from_the_text": "as §2, §3, §4"}, "MCF-7": {"tested_on": "MCF-7", "assay": "Cancer cell growth IC50 (crystal violet)", "type": "cell-based", "details": "Example 15", "from_the_text": "as §2, §3, §4"}, "FUOV-1": {"tested_on": "FUOV-1", "assay": "Cancer cell growth IC50 (crystal violet)", "type": "cell-based", "details": "Example 15", "from_the_text": "as §2, §3, §4"}, "[5]": {"tested_on": "human kidney carcinoma cell lines (ACHN, Caki-1, 0-786, SKRC)", "assay": "Growth IC50 in kidney carcinoma cell line panel", "type": "cell-based", "details": "all kidney cancer cell lines; 72 hours; read-out: IC50 across kidney cancer cell lines", "protocol": "as §3\nThe significance for all results was p<0.0001."}, "[6]": {"details": "72 hours, read-out: Half maximal inhibitory concentration (IC50)"}},
  "note": "Where two headings read alike, the source gives them in different places.",
  "data": [
    {"smiles": "N.N.[Cl][Pt][Cl]", "note": "[CIS, cis-diamminedichloridoplatinum (II)]", "values": [
      {"measurement": "IC50", "setting": "OV90 and OVCA 433", "value": "> 64", "unit": "µM"},
      {"measurement": "IC50", "setting": "[1]", "value": 81.5, "unit": "µM"},
      {"measurement": "Tumor volume, Namalwa xenograft", "setting": "Namalwa xenograft tumors", "value": "not CIS alone"},
      {"measurement": "IC50", "setting": "[2]", "value": "> 64", "unit": "µM"},
      {"measurement": "Apoptosis markers (cleaved caspas-3 and M30) / damage in normal kidney and liver", "setting": "[3]", "value": "elevated"},
      {"measurement": "IC50", "setting": "[4]; A549/DDP (Cisplatin Resistant), single agent, mean ± SEM, read-out: IC50", "value": "90 ± 1", "unit": "µM"},
      {"measurement": "IC50", "setting": "[4]; read-out: IC50 of CIS, Mean, A549/DDP, CIS alone", "value": 87.6, "unit": "µM"},
      {"measurement": "IC50", "setting": "A549; A549 parental, single agent, mean ± SEM, read-out: IC50", "value": "26 ± 1.2", "unit": "µM"},
      {"measurement": "IC50", "setting": "A549; read-out: IC50 of CIS, Mean, A549, CIS alone", "value": 26, "unit": "µM"},
      {"measurement": "IC50", "setting": "o-786; Example 15, O-786, read-out: IC50", "value": "> 64", "unit": "µM"},
      {"measurement": "IC50", "setting": "o-786; o-786, 72 hours, read-out: Half maximal inhibitory concentration (IC50)", "value": "> 64", "unit": "µM"},
      {"measurement": "IC50", "setting": "SKRC; [6]", "value": "> 64", "unit": "µM"},
      {"measurement": "IC50", "setting": "SKRC; Example 15, read-out: IC50", "value": "> 64", "unit": "µM"},
      {"measurement": "IC50", "setting": "ACHN; [6]", "value": "> 64", "unit": "µM"},
      {"measurement": "IC50", "setting": "ACHN; Example 15, read-out: IC50", "value": "> 64", "unit": "µM"},
      {"measurement": "IC50", "setting": "Caki-1; [6]", "value": "> 64", "unit": "µM"},
      {"measurement": "IC50", "setting": "Caki-1; Example 15, read-out: IC50", "value": "> 64", "unit": "µM"},
      {"measurement": "IC50", "setting": "OV90; 72 h", "value": "> 64", "unit": "µM"},
      {"measurement": "IC50", "setting": "OV90; Example 15", "value": "> 64", "unit": "µM"},
      {"measurement": "IC50", "setting": "OVCA 433; Example 15, OV433", "value": "> 64", "unit": "µM"},
      {"measurement": "IC50", "setting": "OVCA 433; OVCA 433, 72 h", "value": "> 64", "unit": "µM"},
      {"measurement": "IC50", "setting": "ARCaP-E", "value": "> 64", "unit": "µM"},
      {"measurement": "IC50", "setting": "HepG2", "value": "> 64", "unit": "µM"},
      {"measurement": "IC50", "setting": "U87", "value": "> 64", "unit": "µM"},
      {"measurement": "IC50", "setting": "MCF-7", "value": 39.5, "unit": "µM"},
      {"measurement": "IC50", "setting": "FUOV-1", "value": 27.5, "unit": "µM"},
      {"measurement": "IC50", "setting": "[5]", "value": "> 64", "unit": "µM"}
    ]}
  ]
}
